Like-named read-outs stand apart in the source and are kept apart here.
How the values were obtained:
[1] = system: OR10a; design: method as in earlier work; conditions: DoOR database value, ref DoOR, cited from earlier work
[2] = system: OR13a; design: method as in earlier work; conditions: DoOR database value, ref DoOR, cited from earlier work
[3] = biological target: T1, Drosophila OR13a (Drosophila melanogaster, UniProt Q9VXL0); assay: Calcium ion fluorescence (GCaMP6) assay, OR13a stable HEK293 cell line; format: cell-based; conditions: for OR13a response (VUAA1-normalized) at 1 μM / OR13a response (VUAA1-normalized) at 10 μM / OR13a response (VUAA1-normalized) at 100 μM: OR13a cell line
T1 construct: expressed in transfected cells
T1 sequence (Q9VXL0 1-418): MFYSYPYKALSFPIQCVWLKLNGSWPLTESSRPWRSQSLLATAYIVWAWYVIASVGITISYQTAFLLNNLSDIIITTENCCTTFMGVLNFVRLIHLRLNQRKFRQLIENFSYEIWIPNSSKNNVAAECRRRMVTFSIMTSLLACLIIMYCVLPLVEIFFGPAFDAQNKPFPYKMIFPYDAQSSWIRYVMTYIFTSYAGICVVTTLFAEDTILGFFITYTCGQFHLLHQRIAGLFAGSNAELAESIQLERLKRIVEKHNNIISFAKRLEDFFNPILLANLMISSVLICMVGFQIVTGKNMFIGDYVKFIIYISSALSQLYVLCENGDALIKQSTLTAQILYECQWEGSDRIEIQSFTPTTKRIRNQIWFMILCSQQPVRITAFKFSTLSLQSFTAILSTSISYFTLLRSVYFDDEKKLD
T1 sequence (Q9VNB5 1-486 partner): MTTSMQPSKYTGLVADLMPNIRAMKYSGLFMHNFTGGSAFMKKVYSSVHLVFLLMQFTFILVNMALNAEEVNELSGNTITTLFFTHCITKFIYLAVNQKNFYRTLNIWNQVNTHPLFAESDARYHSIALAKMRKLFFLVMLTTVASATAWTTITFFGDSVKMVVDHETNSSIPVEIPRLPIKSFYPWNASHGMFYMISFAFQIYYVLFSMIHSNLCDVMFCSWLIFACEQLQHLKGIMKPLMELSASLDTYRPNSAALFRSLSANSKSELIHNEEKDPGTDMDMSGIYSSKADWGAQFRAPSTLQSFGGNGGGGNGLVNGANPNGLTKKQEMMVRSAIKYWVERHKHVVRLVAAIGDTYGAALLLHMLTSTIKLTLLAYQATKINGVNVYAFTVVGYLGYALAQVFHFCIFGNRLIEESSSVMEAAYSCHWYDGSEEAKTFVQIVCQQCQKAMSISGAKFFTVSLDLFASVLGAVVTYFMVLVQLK
In short: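 Responses are VUAA1-normalized ΔF: each VOC-evoked calcium signal, (FMAX−F0)/F0 over 30 s after injection, divided by the same line's mean 50 µM VUAA1 response. Cells were doxycycline-induced HEK293 with GCaMP6 and the cognate Drosophila OR, in HEPES buffer pH 7.3; ligands tested 0.01–100 μM.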

[4] = system: OR49b; design: method as in earlier work; conditions: DoOR database value, ref DoOR, cited from earlier work
[5] = system: OR98a; design: method as in earlier work; conditions: DoOR database value, ref DoOR, cited from earlier work
[6] = system: OR47a; design: method as in earlier work; conditions: DoOR database value, ref DoOR, cited from earlier work
[7] = system: OR85b; design: method as in earlier work; conditions: DoOR database value, ref DoOR, cited from earlier work
[8] = 1 μM VOC, 50 μM VUAA1 = 1, responses not exceeding 0.05 considered 0
[9] = 10 μM VOC, 50 μM VUAA1 = 1, responses not exceeding 0.05 considered 0
[10] = 100 μM VOC, 50 μM VUAA1 = 1, responses not exceeding 0.05 considered 0
[11] = ligand concentration 1 (unit not given), threshold 0.05, below shown as 0
[12] = ligand concentration 10 (unit not given), threshold 0.05, below shown as 0
[13] = ligand concentration 100 (unit not given), threshold 0.05, below shown as 0
[14] = HEK293, read-out: OR13a Average response (VUAA1-normalized), 1 μM VOC, 50 μM VUAA1 = 1, responses not exceeding 0.05 considered 0
[15] = HEK293, read-out: OR13a Average response (VUAA1-normalized), 10 μM VOC, 50 μM VUAA1 = 1, responses not exceeding 0.05 considered 0
[16] = HEK293, read-out: OR13a Average response (VUAA1-normalized), 100 μM VOC, 50 μM VUAA1 = 1, responses not exceeding 0.05 considered 0
[17] = HEK293, read-out: OR13a response (VUAA1-normalized response), VOC concentration 1 μM
[18] = HEK293, read-out: OR13a response (VUAA1-normalized response), VOC concentration 10 μM
[19] = HEK293, read-out: OR13a response (VUAA1-normalized response), VOC concentration 100 μM
[20] = concentration 1, normalized fluorescence change, values below 0.05 threshold given as 0
[21] = concentration 10, normalized fluorescence change, values below 0.05 threshold given as 0
[22] = concentration 100, normalized fluorescence change, values below 0.05 threshold given as 0

| Compound | OR10a DoOR response [1] | OR13a DoOR response [2] | DF norm AVERAGE OR13a [3, 11] | DF norm AVERAGE OR13a [3, 12] | DF norm AVERAGE OR13a [3, 13] | OR49b DoOR response [4] | OR98a DoOR response [5] | OR47a DoOR response [6] | OR85b DoOR response [7] | activation at 1 µM [3, 14] | activation at 10 µM [3, 15] | activation at 100 µM [3, 16] | activation at 1 µM [3, 17] | activation at 10 µM [3, 18] | activation at 100 µM [3, 19] | DF norm AVERAGE OR13a [3, 20] | DF norm AVERAGE OR13a [3, 21] | DF norm AVERAGE OR13a [3, 22] | also measured |
| --- | --- | --- | --- | --- | --- | --- | --- | --- | --- | --- | --- | --- | --- | --- | --- | --- | --- | --- | --- |
| CC(C)=CCC/C(C)=C/CC/C(C)=C/CO [e,e-farnesol] | 0.014 | 0.075 | 0 | 0 | 0 |  |  |  |  |  |  |  |  |  |  |  |  |  | OR13a Average response (VUAA1-normalized) [3, 8]: 0.00; OR13a Average response (VUAA1-normalized) [3, 9]: 0.033; OR13a Average response (VUAA1-normalized) [3, 10]: 0.026; OR13a response (VUAA1-normalized response) ([3]; VOC concentration 1 μM): 0.00; OR13a response (VUAA1-normalized response) ([3]; VOC concentration 10 μM): 0.00; OR13a response (VUAA1-normalized response) ([3]; VOC concentration 100 μM): 0.00 |
| CC(=O)OCCC(C)C [isopentyl acetate] | 0.42 | 0.15 | 0 | 0 | 0 | 0.027 | 0.64 | 0.41 | 0.34 | 3% | 4% | 0% | 0% | 0% | 0% |  |  |  |  |
| Cc1ccc(O)cc1 [4-methylphenol] | 0.24 | 0.019 |  |  |  | 0.43 | 0.085 | -0.037 | 0.37 | 4.62% | 2% | 1.38% | 0% | 0% | 0% | 0 | 0 | 0 |  |
| CCCCC(C)O (stereo not drawn) [2-hexanol] | 0.14 | 0.58 |  |  |  |  |  |  |  | 0% | 0% | 5% | 0% | 0% | 0% | 0 | 0 | 0 |  |
| CC/C=C\CCO [Z-3-hexenol] |  |  |  |  |  |  |  |  |  |  |  |  |  |  |  |  |  |  | OR49b DoOR response ([4]; OR49b): 0.07; OR10a DoOR response ([1]; OR10a): 0.007; OR13a DoOR response ([2]; OR13a): 0.37; OR98a DoOR response ([5]; OR98a): 0.44; OR47a DoOR response ([6]; OR47a): 0.14; OR85b DoOR response ([7]; OR85b): 0.60; OR13a response (VUAA1-normalized) at 1 μM ([3]; VOC concentration 1 μM): 0.00; OR13a response (VUAA1-normalized) at 10 μM ([3]; VOC concentration 10 μM): 0.06; OR13a response (VUAA1-normalized) at 100 μM ([3]; VOC concentration 100 μM): 0.00 |
| CCCCC(C)=O [2-hexanone] | 0.10 | 0.13 |  |  |  |  |  |  |  | 6% | 0% | 0% | 6% | 0% | 0% | 0.05965 | 0 | 0 |  |
| CCCCCC(C)=O [2-heptanone] | 0.016 | 0.26 |  |  |  | 0.011 | 0.62 | 0.58 | 0.65 | 0% | 2.36% | 1.75% | 0% | 0% | 0% | 0 | 0 | 0 |  |
| CCCCCC(C)O (stereo not drawn) [2-heptanol] | 0.009 | 0.67 |  |  |  |  |  |  |  | 4% | 0% | 8% | 0% | 0% | 8% | 0 | 0 | 0.07697 |  |
| CCCOC(C)=O [propyl acetate] |  |  | 0 | 0 | 0 |  |  |  |  | 0% | 0% | 0% |  |  |  |  |  |  | OR49b DoOR response ([4]; OR49b): 0.023; OR10a DoOR response ([1]; OR10a): 0.18; OR13a DoOR response ([2]; OR13a): 0.14; OR98a DoOR response ([5]; OR98a): 0.50; OR47a DoOR response ([6]; OR47a): 0.68; OR85b DoOR response ([7]; OR85b): 0.49; OR13a response (VUAA1-normalized) at 1 μM ([3]; VOC concentration 1 μM): 0.00; OR13a response (VUAA1-normalized) at 10 μM ([3]; VOC concentration 10 μM): 0.00; OR13a response (VUAA1-normalized) at 100 μM ([3]; VOC concentration 100 μM): 0.00 |
| CC/C=C\CCOC(C)=O [Z-3-hexenyl acetate] |  |  |  |  |  |  |  |  |  |  |  |  |  |  |  |  |  |  | OR10a DoOR response ([1]; OR10a): 0.004; OR13a DoOR response ([2]; OR13a): 0.42; OR13a response (VUAA1-normalized) at 1 μM ([3]; VOC concentration 1 μM): 0.00; OR13a response (VUAA1-normalized) at 10 μM ([3]; VOC concentration 10 μM): 0.00; OR13a response (VUAA1-normalized) at 100 μM ([3]; VOC concentration 100 μM): 0.09 |
| C=C(C)[C@H]1CC=C(C)CC1 [(R)-(+)-limonene] | 0.07 | 0.057 |  |  |  | 0.03 | 0.085 |  | 0.034 |  |  |  |  |  |  | 0 | 0 | 0 | OR13a Average response (VUAA1-normalized) [3, 8]: 0.00; OR13a Average response (VUAA1-normalized) [3, 9]: 0.0429; OR13a Average response (VUAA1-normalized) [3, 10]: 0.0285; OR13a response (VUAA1-normalized response) ([3]; VOC concentration 1 μM): 0.00; OR13a response (VUAA1-normalized response) ([3]; VOC concentration 10 μM): 0.00; OR13a response (VUAA1-normalized response) ([3]; VOC concentration 100 μM): 0.00 |
| CCCCCCCO [1-heptanol] |  | 0.28 |  |  |  |  |  | 0.095 |  | 2% | 15% | 22% | 0% | 15% | 22% | 0 | 0.145 | 0.219 |  |
| C=C(C)[C@H]1CC=C(C)CC1 [limonene] | -0.001 |  | 0 | 0 | 0 | 0.016 | 0.09 | 0.056 | 0.10 |  |  |  |  |  |  |  |  |  | OR13a Average response (VUAA1-normalized) [3, 8]: 0.00; OR13a Average response (VUAA1-normalized) [3, 9]: 0.00; OR13a Average response (VUAA1-normalized) [3, 10]: 0.00; OR13a response (VUAA1-normalized response) ([3]; VOC concentration 1 μM): 0.00; OR13a response (VUAA1-normalized response) ([3]; VOC concentration 10 μM): 0.00; OR13a response (VUAA1-normalized response) ([3]; VOC concentration 100 μM): 0.00 |
| Cc1ccc(C(C)C)cc1 [p-cymene] |  |  | 0 | 0 | 0 |  |  |  |  | 0% | 0% | 0% |  |  |  |  |  |  | OR49b DoOR response ([4]; OR49b): 0.014; OR10a DoOR response ([1]; OR10a): -0.003; OR98a DoOR response ([5]; OR98a): -0.012; OR47a DoOR response ([6]; OR47a): 0.018; OR85b DoOR response ([7]; OR85b): -0.004; OR13a response (VUAA1-normalized) at 1 μM ([3]; VOC concentration 1 μM): 0.00; OR13a response (VUAA1-normalized) at 10 μM ([3]; VOC concentration 10 μM): 0.00; OR13a response (VUAA1-normalized) at 100 μM ([3]; VOC concentration 100 μM): 0.00 |
